Assays:
SGLT-1 = target: T1, SGLT-1 (Homo sapiens, UniProt P13866); experiment: in-vitro assay: inhibition of sodium dependent [14C]-AMG uptake into CHO cells stably expressing human SGLT-1; assay type: cell-based; details: 37°C, 1hr
T1 construct: expressed in transfected cells
T1 sequence (P13866 1-664): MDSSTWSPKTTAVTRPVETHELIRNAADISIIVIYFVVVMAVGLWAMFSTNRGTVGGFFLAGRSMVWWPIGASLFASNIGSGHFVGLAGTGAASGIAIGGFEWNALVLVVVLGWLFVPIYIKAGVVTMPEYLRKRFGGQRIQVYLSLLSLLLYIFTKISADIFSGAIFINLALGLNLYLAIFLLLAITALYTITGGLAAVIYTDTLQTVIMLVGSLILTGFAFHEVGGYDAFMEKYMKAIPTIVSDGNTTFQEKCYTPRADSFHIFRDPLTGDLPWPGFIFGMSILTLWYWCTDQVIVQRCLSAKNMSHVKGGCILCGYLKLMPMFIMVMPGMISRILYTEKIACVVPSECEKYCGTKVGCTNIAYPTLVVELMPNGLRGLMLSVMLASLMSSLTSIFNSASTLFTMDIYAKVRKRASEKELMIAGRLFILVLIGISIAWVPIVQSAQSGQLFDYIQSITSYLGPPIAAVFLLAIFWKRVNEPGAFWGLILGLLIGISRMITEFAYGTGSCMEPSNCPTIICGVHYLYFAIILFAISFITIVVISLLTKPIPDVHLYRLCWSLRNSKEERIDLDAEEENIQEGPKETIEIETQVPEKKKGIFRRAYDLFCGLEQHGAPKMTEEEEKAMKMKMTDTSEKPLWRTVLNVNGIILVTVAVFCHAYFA
Method: In the in-vitro assay for the pharmacological activities of the present compounds, the human SGLT-2 and SGLT-1 sequences were transfected to Chinese hamster ovary cells to express stably. By measuring inhibition of the sodium dependent adsorption of [^14C]-labeled […]-D-glucopyranoside (AMG) into the cells, the half-inhibition concentration IC50 was determined. […] Buffer D: 120 mM NaCl, 4.7 mM KCl, 1.2 mM MgCl2, 2.2 mM CaCl2, 10 mM HEPES, 0.5 mM phlorizin (PH 7.4 with 1 mM Tris). Assay method: Human SGLT-2 and SGLT-1 sequences were stably expressed in the CHO cells. […] The plate was washed for five times. […] Finally, the radioactivity of [^14C]-AMG was detected with MicroBeta Trilux (purchased from PerkinElmer Co. Ltd.) according to the scintillation counting method, and the half-inhibition concentration IC50 was calculated.

[1] = rat in-vivo pharmacokinetic assay (PO); details: Sprague-Dawley (SD), male SD rats, 10 mg/kg; for Tmax / AUC(0-t) / AUC(0-inf) / half-life: plasma; for Tmax: time to peak the concentration in the plasma; for Cmax: peak concentration in the plasma; for AUC(0-t): area under curve from time=0→t; for AUC(0-inf): area under curve from time=0→∞
Method: Assay animals: 6-8 weeks aged male SD rats (purchased from Vital River Laboratories), 3 rats per compound, weighing 200-240g.
Solvent: 0.5% MC(methyl cellulose) solution + 0.1% SDS (sodium dodecyl sulfate).
Intragastric administration (PO): See Table 2 Table 2 Administration of compounds in the rat PK (pharmacokinetic) assay
Blood collection: each of 200 µL whole blood were collected at 0.17hr, 0.5hr, 1hr, 2hr, 4hr, 6hr, 8hr, 24hr, 30hr, 48hr, 54hr and 72hr. The collected blood samples were centrifuged at 4°C at 8000rpm in a low temperature high-speed centrifuge (5415R, Eppendorf) for 6mins to separate the blood plasma. The separated plasma was preserved at -80 °C in a refrigerator.
20µL of the plasma was carefully taken out, to which was added 600µL of an internal standard MTBE (methyl tert-butyl ether) solution (containing internal standard dapagliflozin 25ng/ml). The plasma was subjected to a vortex at 1500 rpm for 10mins, and then centrifuged at 12000 rpm for 5mins. 400µL of the supernatant was taken and blow-dried with nitrogen gas. The dried substance was redissolved with 200µL of a redissolving solution (acetonitrile:water=7:3). The solution was subjected to a vortex for 10mins, and analyzed with LC-MS/MS (API4000, Aplplied Biosystems). Table 3. Rat PK (pharmacokinetic) evaluation results (PO) for the compounds

SGLT-2 = target: T2, SGLT-2 (Homo sapiens, UniProt P31639); experiment: in-vitro assay: inhibition of sodium dependent [14C]-AMG uptake into CHO cells stably expressing human SGLT-2; assay type: cell-based; details: for IC50: CHO cells stably expressing human SGLT-2, [14C]-AMG uptake, 37°C, 1hr; for Selectivity: ratio SGLT-1 IC50 / SGLT-2 IC50
T2 construct: expressed in transfected cells
T2 sequence (P31639 1-672): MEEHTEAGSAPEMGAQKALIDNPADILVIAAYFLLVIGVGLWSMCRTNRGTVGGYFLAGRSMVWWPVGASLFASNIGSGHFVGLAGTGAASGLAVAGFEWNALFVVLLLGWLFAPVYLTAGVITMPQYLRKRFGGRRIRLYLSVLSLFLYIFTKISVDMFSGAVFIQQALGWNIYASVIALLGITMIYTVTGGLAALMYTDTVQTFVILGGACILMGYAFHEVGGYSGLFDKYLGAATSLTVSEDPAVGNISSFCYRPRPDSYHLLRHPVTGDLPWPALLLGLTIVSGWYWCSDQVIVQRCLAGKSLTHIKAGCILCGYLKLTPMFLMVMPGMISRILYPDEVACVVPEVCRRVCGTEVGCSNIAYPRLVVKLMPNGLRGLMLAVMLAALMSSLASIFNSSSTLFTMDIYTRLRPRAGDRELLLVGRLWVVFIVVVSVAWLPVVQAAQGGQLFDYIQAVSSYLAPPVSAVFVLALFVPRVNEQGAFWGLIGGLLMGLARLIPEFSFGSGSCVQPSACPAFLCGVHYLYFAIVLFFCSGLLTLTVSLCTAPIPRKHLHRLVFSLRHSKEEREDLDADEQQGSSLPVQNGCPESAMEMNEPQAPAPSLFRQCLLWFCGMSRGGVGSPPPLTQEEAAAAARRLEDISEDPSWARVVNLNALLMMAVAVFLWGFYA
Method: In the in-vitro assay for the pharmacological activities of the present compounds, the human SGLT-2 and SGLT-1 sequences were transfected to Chinese hamster ovary cells to express stably. By measuring inhibition of the sodium dependent adsorption of [^14C]-labeled […]-D-glucopyranoside (AMG) into the cells, the half-inhibition concentration IC50 was determined.
Buffer A (KRH-Na^+): 120 mM NaCl, 4.7 mM KCI, 1.2 mM MgCl2, 2.2 mM CaCl2, 10 mM HEPES (PH 7.4 with 1 mM Tris).
Buffer A- (KRH-NMG): 120 mM NMG, 4.7 mM KCl, 1.2 mM MgCl2, 2.2 mM CaCl2, 10 mM HEPES (PH 7.4 with 1 mM Tris).
Buffer D: 120 mM NaCl, 4.7 mM KCl, 1.2 mM MgCl2, 2.2 mM CaCl2, 10 mM HEPES, 0.5 mM phlorizin (PH 7.4 with 1 mM Tris).
Assay method: Human SGLT-2 and SGLT-1 sequences were stably expressed in the CHO cells. The cell culture was conducted in a 96-well plate for 12hr. The plate was washed with KRH-Na+ (Buffer A) or KRH-NMG (Buffer A-) buffering solution for three times, 200µL/well. Then the plate was added with a buffering solution containing Buffer A or Buffer A- plus [^14C]-AMG (10 µCi/mL), 100µL/well. The cell culture was conducted at 37°C for 1hr. Then, 100µL of an ice pre-cooled buffering solution (Buffer D) was added to terminate the assay. The plate was washed for five times. Then an ice pre-cooled lytic buffering solution (100mM NaOH solution) was added, 20 µL/well, and the centrifugation at 600rpm was conducted for 5mins. Then Microscint 40 solution was added, 80 µl/well, and the centrifugation at 600rpm was conducted for 5mins. Finally, the radioactivity of [^14C]-AMG was detected with MicroBeta Trilux (purchased from PerkinElmer Co. Ltd.) according to the scintillation counting method, and the half-inhibition concentration IC50 was calculated.

Structure (SMILES)	IC50 (SGLT-1) [nM]	Tmax [1] [h]	IC50 (SGLT-2) [nM]	Selectivity (SGLT-2)	Cmax [1] [ng/mL]	AUC(0-t) [1] [ng·h/mL]	AUC(0-inf) [1] [ng·h/mL]	half-life [1] [h]
OC[C@H]1O[C@@H](c2ccc(Cl)c(Cc3ccc(O[C@H]4C[C@@H]5C[C@@H]5C4)cc3)c2)[C@H](O)[C@@H](O)[C@@H]1O [Compound represented by formula (II), (2S,3R,4R,5S,6R)-2-(3-(4-(((1R,3s,5S)-bicyclo[3.1.0]hexan-3-yl)oxy)benzyl)-4-chlorophenyl)-6-(hydroxymethyl)tetrahydro-2H-pyran-3,4,5-triol]	17200	1	2.5	6886.93	–	–	–	–
OC[C@H]1O[C@@H](c2ccc(Cl)c(Cc3ccc(OC4CC5CC5C4)cc3)c2)[C@H](O)[C@@H](O)[C@@H]1O (some centres unmarked) [Reference compound 2]	–	2	–	–	4980	69300	69400	8.18
OC[C@H]1O[C@@H](c2ccc(Cl)c(Cc3ccc(O[C@@H]4C[C@@H]5C[C@@H]5C4)cc3)c2)[C@H](O)[C@@H](O)[C@@H]1O [Compound represented by formula (III), (2S,3R,4R,5S,6R)-2-(3-(4-(((1R,3r,5S)-bicyclo[3.1.0]hexan-3-yl)oxy)benzyl)-4-chlorophenyl)-6-(hydroxymethyl)tetrahydro-2H-pyran-3,4,5-triol]	–	–	7.83	–	–	–	–	–
OC[C@H]1OC(c2ccc(Cl)c(Cc3ccc(OC4CC5CC5C4)cc3)c2)[C@H](O)[C@@H](O)[C@@H]1O (some centres unmarked) [Reference compound 1]	2400	2	3.63	660.52	4140	69600	70300	10.3
OC[C@H]1O[C@H](c2ccc(Cl)c(Cc3ccc(O[C@H]4C[C@@H]5C[C@@H]5C4)cc3)c2)[C@H](O)[C@@H](O)[C@@H]1O [Compound represented by formula (IV), (2R,3R,4R,5S,6R)-2-(3-(4-(((1R,3s,5S)-bicyclo[3.1.0]hexan-3-yl)oxy)benzyl)-4-chlorophenyl)-6-(hydroxymethyl)tetrahydro-2H-pyran-3,4,5-triol]	–	–	1110	–	–	–	–	–
OC[C@H]1O[C@H](c2ccc(Cl)c(Cc3ccc(O[C@@H]4C[C@@H]5C[C@@H]5C4)cc3)c2)[C@H](O)[C@@H](O)[C@@H]1O [Compound represented by formula (V), (2R,3R,4R,5S,6R)-2-(3-(4-(((1R,3r,5S)-bicyclo[3.1.0]hexan-3-yl)oxy)benzyl)-4-chlorophenyl)-6-(hydroxymethyl)tetrahydro-2H-pyran-3,4,5-triol]	–	–	282	–	–	–	–	–
